Read-outs that look alike come from different tables or passages of the source.

Usually inhibition stands for the relative decrease from the control value, in per cent. A word on the ED50: it is the dose at which the effect has come halfway, by size or by number of responders.

One assay concerns the target T1, Haloperidol Receptor (Bos taurus, UniProt P20288).
T1 construct: from tissue
As to the kind of experiment: Haloperidol Receptor Binding (dopaminergic agents). The conditions noted are these: read-out: % Inhibition (Haloperidol Receptor Binding). The text has this:
The method for determining the effectiveness of the compounds of the instant invention as dopaminergic agents is explained in Mol. Pharmacol., 1976 (12) 800 herein incorporated by reference.

The subject of assay [1] is Locomotor Activity in Mouse. As to the kind of experiment: Inhibition of Locomotor Activity in Mouse (Mouse Activity and Screen Test Procedure). The format is in vivo. As to conditions: read-out: ED50, Inhibition of Locomotor Activity in Mouse. The text has this:
The effects of representative compounds of the present invention as antipsychotic agents was established by the Mouse Activity and Screen Test Procedure described in Pharmacol. Biochem. Behav. 1978 (8) 97, herein incorporated by reference.
Inhibition of Locomotor Activity in Mouse

Assay [2] has as its system Spontaneous Hypertensive Rat. In words: Antihypertensive action, Spontaneous Hypertensive Rat. The format is in vivo. As to conditions: 30 mg/kg, PO. The protocol: The methodology for testing the antihypertensive action of the compounds of the invention is described in Am. J. Med. Sci., 1970 (259)257, herein incorporated by reference. These experiments are considered standard tests in mammals and are indicative of utility for treatment of similar diseases in humans.
Spontaneous Hypertensive Rat (30 mg/kg, PO)

T1 sequence (P20288 whole entry): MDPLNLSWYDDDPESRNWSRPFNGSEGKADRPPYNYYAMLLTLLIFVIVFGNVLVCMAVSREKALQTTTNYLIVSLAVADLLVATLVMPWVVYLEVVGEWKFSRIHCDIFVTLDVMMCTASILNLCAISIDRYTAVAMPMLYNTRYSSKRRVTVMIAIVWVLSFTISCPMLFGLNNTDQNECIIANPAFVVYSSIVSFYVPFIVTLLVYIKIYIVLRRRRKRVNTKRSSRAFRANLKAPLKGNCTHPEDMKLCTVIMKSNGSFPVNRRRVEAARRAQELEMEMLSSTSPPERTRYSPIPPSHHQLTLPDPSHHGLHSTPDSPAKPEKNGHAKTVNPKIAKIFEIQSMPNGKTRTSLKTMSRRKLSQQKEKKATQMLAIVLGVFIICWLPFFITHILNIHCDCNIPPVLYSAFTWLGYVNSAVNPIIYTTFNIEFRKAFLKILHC

On to `CC(C)CCN1CCC=C(c2csc(N)n2)C1` [4-[1,2,5,6-Tetrahydro-1-(3-methylbutyl)-3-pyridinyl]-2-thiazolamine], for which, on Haloperidol Receptor (at 10^-6 M), the inhibition at 1 µM is 65%. In assay [1], the ED50 was 8.7 mg/kg.
The corresponding values for `CCOCCN1CCC=C(c2csc(N)n2)C1` [4-[1-(2-Ethoxyethyl)-1,2,5,6-tetrahydro-3-pyridinyl]-2-thiazolamine] are 35% and 30 mg/kg.
The corresponding values for `CCCN1CCC=C(c2csc(N)n2)C1` [III (double bond) R=R'=H; R"=(CH2)2 CH3, 4-(1,2,5,6-Tetrahydro-1-propyl-3-pyridinyl)-2-thiazolamine] are 66% and 2.9 mg/kg.
Turning to `Nc1nc(C2=CCCN(CCc3ccccc3)C2)cs1` [III (double bond) R=R'=H; R"=(CH2)2 Ph, 4-[1,2,5,6-Tetrahydro-1-(2-phenylethyl)-3-pyridinyl]-2-thiazolamine], the inhibition at 1 µM on Haloperidol Receptor worked out at 16%. The ED50 in assay [1] is 18.1 mg/kg.
For `CCCCN1CCC=C(c2csc(N)n2)C1` [III (double bond) R=R'=H; R"=(CH2)3 CH3, 4-(1,2,5,6-Tetrahydro-1-butyl-3-pyridinyl)-2-thiazolamine], on Haloperidol Receptor (at 10^-6 M), the inhibition at 1 µM came to 57%. The 50% effective dose (ED50) in assay [1] turned out to be 7.3 mg/kg.
As to `CCCCCN1CCC=C(c2csc(N)n2)C1` [III (double bond) R=R'=H; R"=(CH2)4 CH3, 4-(1,2,5,6-Tetrahydro-1-pentyl-3-pyridinyl)-2-thiazolamine], the inhibition at 1 µM at Haloperidol Receptor (at 10^-6 M) is 26%. In assay [1], the ED50 was below 10 mg/kg.
Consider `CCCCCCN1CCC=C(c2csc(N)n2)C1` [III (double bond) R=R'=H; R"=(CH2)5 CH3, 4-(1,2,5,6-Tetrahydro-1-hexyl-3-pyridinyl)-2-thiazolamine], for which, on Haloperidol Receptor (at 10^-6 M), the inhibition at 1 µM was 88%. For the same compound, in assay [1], the ED50 is above 30 mg/kg.
With `CCCCCCCN1CCC=C(c2csc(N)n2)C1` [III (double bond) R=R'=H; R"=(CH2)6 CH3, 4-(1,2,5,6-Tetrahydro-1-heptyl-3-pyridinyl)-2-thiazolamine], in assay [1], the ED50 was 10.4 mg/kg.
Turning to `CCN1CCC=C(c2csc(N)n2)C1` [III (double bond) R=R'=H; R"=CH2 CH3, 4-(1,2,5,6-Tetrahydro-1-ethyl-3-pyridinyl)-2-thiazolamine], the inhibition at 1 µM on Haloperidol Receptor (at 10^-6 M) worked out at 49%. Also, the ED50 in assay [1] was above 30 mg/kg.
For the compound `C=CCN1CCC=C(c2csc(N)n2)C1` [III (double bond) R=R'=H; R"=CH2 CH=CH2, 4-(1,2,5,6-Tetrahydro-1-allyl-3-pyridinyl)-2-thiazolamine], the inhibition at 1 µM on Haloperidol Receptor (at 10^-6 M) amounted to 40%. The ED50 in assay [1] worked out at 3 mg/kg.
The corresponding values for `CN1CCC=C(c2csc(N)n2)C1` [III (double bond) R=R'=H; R"=CH3, 4-(1,2,5,6-Tetrahydro-1-methyl-3-pyridinyl)-2-thiazolamine] are 50% and 30 mg/kg.
Regarding `CCCN1CCCC(c2csc(N)n2)C1` (stereo not drawn) [III (single bond) R=R'=H; R"=(CH2)2 CH3, 4-(1-Propyl-3-piperidyl)-2-thiazolamine], at Haloperidol Receptor, the inhibition at 1 µM was 15%. Further, the ED50 in assay [1] came out at 10 mg/kg.
As to `CCCN1CCC=C(c2csc(NC)n2)C1` [N-Methyl-4-(1,2,5,6-tetrahydro-1-propyl-3-pyridinyl)-2-thiazolamine], the ED50 in assay [1] came out at 10 mg/kg.
Take `CCCCCN1CCC=C(c2csc(NC(C)=O)n2)C1` [N-[4-(1,2,5,6-Tetrahydro-1-pentyl-3-pyridinyl)-2-thiazolyl]acetamide]: the inhibition at 1 µM at Haloperidol Receptor (at 10^-6 M) was 0%. The ED50 in assay [1] amounted to 10 mg/kg.
The corresponding values for `CCCN1CCC=C(c2csc(NC(C)=O)n2)C1` [N-[4-(1,2,5,6-Tetrahydro-1-propyl-3-pyridinyl)-2-thiazolyl]-acetamide] are 0% and 30 mg/kg.
In the case of `CCCN1CCCC(c2csc(NC(C)=O)n2)C1` (stereo not drawn) [N-[4-(1-propyl-3-piperidyl)-2-thiazolyl]acetamide], the inhibition at 1 µM at Haloperidol Receptor (at 10^-6 M) was determined as 9%. Moreover, in assay [1], the ED50 came to 30 mg/kg.
Consider `CCCCCN1CCC=C(c2csc(NC)n2)C1` [N-methyl-4-(1,2,5,6-tetrahydro-1-pentyl-3-pyridinyl)-2-thiazolamine], for which the ED50 in assay [1] is below 10 mg/kg.
The same measure, in the same setting: next, `CCCCCN1CCC=C(c2csc(N(C)C(C)=O)n2)C1` [N-methyl-N-[4-(1,2,5,6-tetrahydro-1-pentyl-3-pyridinyl)-2-thiazolyl[-acetamide]: 6.4 mg/kg.
The same measure, in the same setting: next, `CCCN1CCC=C(c2csc(N(C)C(C)=O)n2)C1` [N-methyl-N-[4-(1,2,5,6-tetrahydro-1-propyl-3-pyridinyl)-2-thiazolyl]-acetamide]: 39 mg/kg.
Turning to `CCCN1CCC=C(c2csc(N)n2)C1` [drawing 5], the “Decrease in Blood Pressure” value in assay [2] (duration 1 hour) is reported as 20%; in assay [2] (duration up to 6 hours) it was 10-15%. The “Duration (of decrease in blood pressure)” value is “up to 6 hours” in assay [2] (of the 10-15% decrease) and 1 h in assay [2] (of the 20% decrease).
Regarding `CC(C)CCN1CCC=C(c2csc(N)n2)C1` [drawing 6], the “Decrease in Blood Pressure” value in assay [2] (duration up to 10 hours) was 12-20%. For the same compound, in assay [2] (of the 12-20% decrease), the “Duration (of decrease in blood pressure)” value is recorded as “up to 10 hours”.

These data come from patent US4739067A, “4-(1,2,5,6-tetrahydro-1-alkyl-3-pyridinyl)-2-thiazolamines and 4-(hexahydro-1-alkyl-3-pyridinyl)-2-thiazolamines” (priority 1986, dated 1988).
